Data on 67 molecules can be found in PubChem BioAssay AID1361 (SRMLSC, 2008).

A short description of this experiment: mitochondrial fusion inhibitors, confirmation, cell-based, chemical genetic, wild-type and mutant (AID 1361). As to conditions: Cell-based mitochondrial fusion phenotype, imaging.
Where [1] appears, read: mutant cells, measured here: mutant cell line IC50.

pIC50: −log10 of the molar value. Calls of active or inactive are those of the source. No rule for the calls is given here.

Usually IC50 stands for the concentration needed to halve the response being measured. The term pIC50 denotes −log10 of the IC50, conventionally taken in molar units. As for `CCOC(=O)c1c(-c2ccc(OC)cc2)csc1/N=C/C1=C(O)CCCC1=O`, the IC50 (WT cells) was > 25 µM (inactive). For the same molecule, the pIC50 under setting [1] was below 4.60.

Turning to `CCCCCc1nc2sc3c(c2c(=O)n1NC(=O)c1ccc([N+](=O)[O-])cc1)CC(C)(C)OC3`, the pIC50 is 4.81 (WT cells) and below 4.60 under setting [1].

Consider `CC1(C)CC(=O)C(C=Nc2ccc3[nH]ncc3c2)=C(O)C1`, for which, under “WT cells”, the IC50 is > 25 µM (inactive). The molecule also showed a pIC50 under setting [1] below 4.60.

As to `Clc1cccc(N=C2NN=C(c3ccc4c(c3)OCCO4)CS2)c1`, the pIC50 by setting is: (WT cells) 4.80; under setting [1], below 4.60.

In the case of `COC(=O)c1c(N)n(Cc2ccc(OC)cc2)c2nc3ccccc3nc12`, the IC50 (WT cells) is > 25 µM (inactive). The molecule further had a pIC50 under setting [1] below 4.60.

Turning to `Cc1cccc(-n2ncc3c(N4CC(C)CC(C)C4)ncnc32)c1` (centres undefined), the pIC50 runs as follows: (WT cells) 4.84; under setting [1], 4.70.

With `Oc1cccc(C(O)CNCc2ccc(OCc3ccc(Cl)cc3Cl)cc2)c1` (centres undefined), the pIC50 by setting is: (WT cells) 4.82; under setting [1], 4.76.

As for `CC(C)(C)n1nnnc1C(c1ccc(F)cc1)N(Cc1ccc(F)cc1)Cc1ccco1` (centres undefined), the pIC50 is, setting by setting: (WT cells) 4.84; under setting [1], below 4.60.

In the case of `CCCC(=O)NC(=S)Nc1cccc(Cl)c1N1CCCCC1`, the pIC50 is, setting by setting: (WT cells) 4.65; under setting [1], below 4.60.

In the case of `CC(C)N(C(=S)NC1CCCCC1)c1ccccc1`, the IC50 (WT cells) was > 25 µM (inactive). Under setting [1], this molecule showed a pIC50 below 4.60.

On to `O=C(N/N=C/c1c(Cl)cccc1Cl)c1n[nH]c2c1CCCC2`, for which the IC50 (WT cells) was > 25 µM (inactive). The pIC50 under setting [1] was below 4.60.

In the case of `CCc1ccc(-c2nn(-c3ccccc3)cc2CSC(=N)N)cc1`, the IC50 (WT cells) is > 25 µM (inactive). Besides, the pIC50 under setting [1] was below 4.60.

In the case of `Cc1cc(C)c(OCC(=O)Nc2nnc(-c3ccco3)o2)c(C)c1`, the IC50 (WT cells) was > 25 µM (inactive). The same molecule showed a pIC50 under setting [1] below 4.60.

On to `c1ccc(-c2csc3ncnc(N4CCc5ccccc5C4)c23)cc1`, for which the pIC50 (WT cells) was 5.03 and the pIC50 under setting [1] is below 4.60.

For the molecule `COc1ccc(C(=O)Nc2ccc(Cl)cc2C(=O)NCCN2CCOCC2)cc1`, the IC50 (WT cells) was > 25 µM (inactive). This molecule showed a pIC50 under setting [1] below 4.60.

Consider `CCOc1cc(C(=O)N(C)Cc2cc3ccccc3[nH]c2=O)cc(OCC)c1OCC`, for which the IC50 (WT cells) is > 25 µM (inactive). The pIC50 under setting [1] is below 4.60.

In the case of `COc1ccc(-c2cc3nc(C)cc(N4CC(C)CC(C)C4)n3n2)cc1` (centres undefined), the pIC50 is, setting by setting: (WT cells) 4.75; under setting [1], 4.71.

In the case of `Cc1ccc(C(=O)Nc2nc(-c3ccccc3)c(-c3ccccc3)o2)cc1`, the pIC50 (WT cells) is 5.30 and the pIC50 under setting [1] is 5.03.

With `O=C(N/N=C/c1cccc(O)c1)c1ccc(COc2ccccc2Br)cc1`, the pIC50 (WT cells) is 4.73 and the pIC50 under setting [1] is below 4.60.

In the case of `N#CCCN(CCC#N)c1nnc(-c2ccccc2)s1`, the IC50 (WT cells) was > 25 µM (inactive). This molecule also showed a pIC50 under setting [1] below 4.60.

On to `CCS(=O)(=O)Nc1ccc(-c2cc(-c3ccccc3)c3cc(C)ccc3n2)cc1`, for which the pIC50 runs as follows: (WT cells) 5.14; under setting [1], below 4.60.

For the molecule `O=C1Nc2ccc(Cl)cc2C12Nc1ccccc1-c1nnc(SCc3ccccc3F)nc1O2` (centres undefined), the IC50 (WT cells) was > 25 µM (inactive). The molecule also gave a pIC50 under setting [1] below 4.60.

Turning to `Cn1c(=O)c(NC2CCCCC2)c2c3c(cccc31)C(=O)c1ccccc1-2`, the pIC50 reads like this: (WT cells) 4.96; under setting [1], 4.68.

For `Cc1cc(Cl)ccc1NC(=S)NCCC(c1ccccc1)c1ccccc1`, the negative-log IC50 (pIC50) is 5.31 (WT cells) and below 4.60 under setting [1].

Take `CCOC(=O)C1=C(C)C(c2cccc(Oc3ccccc3)c2)NC(=S)N1` (centres undefined): the IC50 (WT cells) was > 25 µM (inactive). This molecule also had a pIC50 under setting [1] below 4.60.

With `COc1ccc(NC(=O)c2oc3ccccc3c2NC(=O)COc2ccccc2OC)c(OC)c1`, where the note is “WT cells”, the IC50 is > 25 µM (inactive). Further, the pIC50 under setting [1] was below 4.60.

Consider `Cc1ccc(NC(=S)N(CCCN2CCCC2)Cc2cccn2Cc2ccc(Cl)cc2)cc1`, for which the pIC50 runs as follows: (WT cells) 4.84; under setting [1], below 4.60.

Regarding `O=C(CNC(=S)N(Cc1ccccc1)Cc1ccccc1F)NCCc1ccc(Cl)cc1`, the pIC50 is 5.40 (WT cells) and below 4.60 under setting [1].

Regarding `COCC(C)NC(=O)c1cc(-c2cccc(OC)c2)on1` (centres undefined), the IC50 (WT cells) is > 25 µM (inactive). Besides, the pIC50 under setting [1] is below 4.60.

Turning to `Cn1c(=O)n(C)c2cc([N+](=O)[O-])c(N3CCN(S(=O)(=O)c4ccc(C(C)(C)C)cc4)CC3)cc21`, the pIC50 reads like this: (WT cells) 5.22; under setting [1], below 4.60.

Turning to `Cc1[nH]c2ccccc2c1/C=N/NC(=O)C1CC1(c1ccccc1)c1ccccc1` (centres undefined), the pIC50 was 5.10 (WT cells) and below 4.60 under setting [1].

`CCCC(NC(=S)NCC1CCCO1)C12CC3CC(CC(C3)C1)C2` (centres undefined): the pIC50 reads like this: (WT cells) 5.12; under setting [1], below 4.60.

On to `O=C(O)Cn1c(CC(=O)N2CCCC2)nc2ccccc21`, for which the IC50 (WT cells) was > 25 µM (inactive). The same molecule had a pIC50 under setting [1] below 4.60.

`CCOC1(OCC)C(c2ccc(Cl)cc2)C(C#N)(C#N)C1(OCC)OCC` (centres undefined): the pIC50 was 4.94 (WT cells) and below 4.60 under setting [1].

Turning to `Cc1cc(C)n(CCc2nc(-c3ccc(C(C)(C)C)cc3)cs2)n1`, the pIC50 reads like this: (WT cells) 4.66; under setting [1], below 4.60.

For the molecule `CCc1cc2c(=O)c(-c3cscn3)coc2cc1O`, the IC50 (WT cells) is > 25 µM (inactive). The pIC50 under setting [1] is below 4.60.

In the case of `Cc1ccc2c(N)c(C#N)sc2n1`, the IC50 (WT cells) is > 25 µM (inactive). For the same molecule, under setting [1], the pIC50 is below 4.60.

For the molecule `CCN=c1scc(-c2ccco2)n1/N=C/c1ccc(OC)c(O)c1`, the IC50 (WT cells) is > 25 µM (inactive). This molecule also showed a pIC50 under setting [1] below 4.60.

In the case of `CCN1CCN(CCNC(=O)c2ccc(/C=C3\Sc4ccccc4N(Cc4ccccc4F)C3=O)cc2)CC1`, the IC50 (WT cells) was 18.9 µM (inactive). In addition, under setting [1], the pIC50 was below 4.90.

As to `Cc1cc(C)nc(N2CCC(C(=O)NCCc3ccc(F)cc3)CC2)n1`, the IC50 (WT cells) was > 25 µM (inactive). The pIC50 under setting [1] was below 4.60.

In the case of `COc1ccc(NC(=S)NC(NC(=O)c2ccc(Cl)cc2Cl)C(Cl)(Cl)Cl)c([N+](=O)[O-])c1` (centres undefined), the pIC50 (WT cells) is 4.94 and the pIC50 under setting [1] is below 4.60.

`S=c1[nH]nc(-c2cc3ccccc3o2)n1Cc1ccccc1`: the pIC50 is 4.90 (WT cells) and 4.64 under setting [1].

For the molecule `COc1ccc(NC(=O)Nc2cccc([N+](=O)[O-])c2)cc1Cl`, the IC50 (WT cells) is > 25 µM (inactive). Under setting [1], the pIC50 is below 4.60.

`CCCCC(=O)NC(c1ccc([N+](=O)[O-])cc1)c1c(O)ccc2ccccc12` (centres undefined): the IC50 (WT cells) was > 25 µM (inactive). Also, the pIC50 under setting [1] was below 4.60.

As for `CCOC(=O)c1sc2nc(CSc3ccccc3)nc(N3CCC(C(N)=O)CC3)c2c1C`, the IC50 (WT cells) is > 25 µM (inactive). This molecule had a pIC50 under setting [1] below 4.60.

Turning to `CCN1C(=O)S/C(=C/c2c(OCc3ccc(C(=O)O)cc3)ccc3ccccc23)C1=O`, the pIC50 (WT cells) was 4.73 and the pIC50 under setting [1] was below 4.60.

As to `CN(CC(=O)O/N=C(\N)c1cccc([N+](=O)[O-])c1)S(=O)(=O)c1ccccc1`, the IC50 (WT cells) was > 25 µM (inactive). Under setting [1], this molecule gave a pIC50 below 4.60.

Consider `CCc1cc(C(=O)Cc2ccc(F)cc2)c(O)cc1O`, for which the IC50 (WT cells) was > 25 µM (inactive). Further, the pIC50 under setting [1] was below 4.60.

On to `O=C(OCc1nnc(-c2ccccc2)o1)C12CC3CC(CC(Br)(C3)C1)C2`, for which the pIC50 reads like this: (WT cells) 4.62; under setting [1], below 4.60.

As to `CCOC(=O)Cc1c(Sc2ccccc2)c2cc(C)ccc2n1C`, the pIC50 by setting is: (WT cells) 4.91; under setting [1], below 4.60.

As for `COc1ccc(O[C@H]2C=C[C@@H](c3ccccc3)O[C@@H]2COC(=O)CC/C(C)=N/O[C@@H](C)CN2CCCCc3nc(C)c(C)cc32)cc1`, the pIC50 by setting is: (WT cells) 4.92; under setting [1], below 4.60.

As to `C/C=C(\C)CN1CCN(c2cc(C)ccc2C)CC1`, the IC50 (WT cells) is > 25 µM (inactive). Further, the pIC50 under setting [1] was below 4.60.

Turning to `Cc1nc2cc(C(=O)OCC(=O)NC34CC5CC(CC(C5)C3)C4)ccc2n1-c1ccccc1`, the pIC50 reads like this: (WT cells) 4.66; under setting [1], below 4.60.

As to `NS(=O)(=O)c1ccc(N2N=C(c3ccccc3)CC2c2ccccc2)cc1` (centres undefined), the pIC50 was 4.92 (WT cells) and below 4.60 under setting [1].

In the case of `O=C(c1cnc(-c2ccc(Cl)cc2)s1)c1ccc(Cl)cc1Cl`, the pIC50 runs as follows: (WT cells) 4.84; under setting [1], below 4.60.

On to `COC(=O)CNC(=O)CNC(=O)c1nn(-c2ccc(OC)c(Cl)c2)c(=O)c2ccccc12`, for which the IC50 (WT cells) is > 25 µM (inactive). This molecule gave a pIC50 under setting [1] below 4.60.

For the molecule `CCC1(C)Cc2c(sc3[nH]c(=S)n(Cc4ccccc4)c(=O)c23)CO1` (centres undefined), the pIC50 runs as follows: (WT cells) 4.67; under setting [1], below 4.60.

On to `Cc1nn(C(C)(C)C)c(OC(=O)c2ccc3c(c2)OCO3)c1Sc1ccccc1`, for which the negative-log IC50 (pIC50) by setting is: (WT cells) 5.08; under setting [1], below 4.60.

For the molecule `O=c1c2cn[nH]c2nc(SCc2c(F)cccc2F)n1-c1ccc(Cl)cc1`, where the note is “WT cells”, the IC50 is > 25 µM (inactive). Further, the pIC50 under setting [1] is below 4.60.

With `CC(=O)N(C)c1nnc(-c2cnccn2)s1`, under “WT cells”, the IC50 is > 25 µM (inactive). The pIC50 under setting [1] was below 4.60.

`Cc1cc(Nc2ccccc2)c2c([N+](=O)[O-])cc(C)c(C)c2n1`: the IC50 (WT cells) was > 25 µM (inactive). Under setting [1], the pIC50 is below 4.60.

As for `Brc1cnc(N2CCCCC2)nc1N1CCOCC1`, the IC50 (WT cells) is > 25 µM (inactive). Further, the pIC50 under setting [1] was below 4.60.

As for `Nn1c(SCC(=O)Nc2ccc3c(c2)OCO3)nnc1-c1ccncc1`, the IC50 (WT cells) was > 25 µM (inactive). Under setting [1], this molecule gave a pIC50 below 4.60.

Take `COc1ccc(C2c3c(ncn(Cc4ccco4)c3=N)Oc3ccc4ccccc4c32)cc1` (centres undefined): the pIC50 was 4.87 (WT cells) and below 4.60 under setting [1].

`CC1CN(c2oc(Cc3cccc4ccccc34)nc2C#N)CC(C)O1` (centres undefined): the IC50 (WT cells) was > 25 µM (inactive). For the same molecule, the pIC50 under setting [1] is below 4.60.

Turning to `CC1CCCN(c2nc3c(c(=O)[nH]c(=O)n3C)n2Cc2ccccc2Cl)C1` (centres undefined), the pIC50 is 4.76 (WT cells) and below 4.60 under setting [1].

With `CCOc1ccc(Cc2c(Cl)nc(SC)nc2N(C)C)cc1`, the pIC50 (WT cells) was 4.93 and the pIC50 under setting [1] is below 4.60.
